Here are results for nine compounds from patent publication US20140288323A1, “CYCLOPROPENIMINE CATALYST COMPOSITIONS AND PROCESSES” (THE TRUSTEES OF COLUMBIA UNIVERSITY IN THE CITY OF NEW YORK, priority 2011, published 2014).

The nature of data set [1]: Storage of cyclopropenimine hydrochloride salts at room temperature. The format is physicochemical. Conditions: stored at room temperature. The procedure:
(§1) tert-Butylamine (1.4 mL, 13.25 mmol, 3.0 equiv) was added to a solution of chlorocyclopropenium salt (Yoshida et al., 1971) (1.640 g, 4.42 mmol, 1.0 equiv) in CH2Cl2 (50 mL). A white precipitate was observed as the reaction mixture was stirred for 48 hours at room temperature. The crude reaction mixture was washed with 1.0 M HCl (3×30 mL), dried with anhydrous sodium sulfate and concentrated in vacuo to yield pure cyclopropenimine hydrochloride salt as a white solid (1.490 g, 97% yield). […] Neutral cyclopropenimine was prepared in situ in CD3CN to be used for pKBH+ estimation. ^1H NMR data was recorded after addition of excess sodium hydride or potassium tert-butoxide to the corresponding cyclopropenimine hydrochloride salt in CD3CN. ^1H NMR (300 MHz, CD3CN) δ 3.60 (m, 4H, NCH(CH3)2), 1.10-1.40 (m, 33H, NC(CH3)3, NCH(CH3)2).
Dicyclohexylamine (93.3 mL, 469.0 mmol, 6.0 equiv) was slowly added to a solution of tetrachlorocyclopropene (9.59 mL, 78.16 mmol, 1.0 equiv) in CH2Cl2 (800 mL) in a 3-liter round bottom flask. A white precipitate formed as the reaction mixture was stirred for a further four hours at room temperature. Next, (S)-2-amino-3-phenylpropan-1-ol (13.0 g, 86.0 mmol, 1.1 equiv) was added in one portion and the reaction mixture was stirred for an additional ten hours. The crude reaction mixture was filtered through a celite plug, then washed with 1.0 M HCl (3×400 mL), dried with anhydrous sodium sulfate and concentrated in vacuo to yield pure cyclopropenimine hydrochloride salt as a white solid (45.0 g, 99% yield). […] 13C NMR (100 MHz, CDCl3) δ 137.8, 129.2, 128.0, 126.2, 116.5, 114.5, 63.7, 61.3, 59.1, 38.4, 32.1, 31.9, 25.4, 24.4. X-Ray quality crystals were obtained by slow condensation of hexanes into a benzene solution of cyclopropenimine hydrochloride salt.
Dicyclohexylamine (1.27 mL, 6.42 mmol, 6.0 equiv) was slowly added to a solution of tetrachlorocyclopropene (0.13 mL, 1.07 mmol, 1.0 equiv) in CH2Cl2 (20 mL) at room temperature. A white precipitate formed as the reaction mixture was stirred for a further four hours. Next, (S)-1-phenylethanamine (0.28 mL, 2.14 mmol, 2.0 equiv) was added in one portion and the reaction mixture was stirred overnight. The crude reaction mixture was filtered through a celite plug, then washed with 1.0 M HCl (3×20 mL), dried with anhydrous sodium sulfate and concentrated in vacuo to yield pure cyclopropenimine hydrochloride salt as a white solid (567 mg, 96% yield).
The crude reaction mixture was washed with 1.0 M HCl (3×10 mL), dried with anhydrous sodium sulfate and concentrated in vacuo to yield pure cyclopropenimine hydrochloride salt as a pale yellow solid (440 mg, 98% yield).

A short description of data set [2]: Rearrangement rate study: storage stability of cyclopropenimine 5 and 5.HCl by 1H NMR. The format is physicochemical. The procedure:
Freshly obtained cyclopropenimine 5 was placed in a vial (250 mg per vial) and stored at room temperature and in a −20° C. freezer. Freshly isolated cyclopropenimine hydrochloride salt (250 mg of 5.HCl) was also stored at room temperature. At each time point, a small amount of the solid was removed and its ^1H NMR (CDCl3) was used to measure the ratio of cyclopropenimine to the rearranged product.

For data set [3] the following is noted: in acetonitrile; Kaljurand et al., 2005; cited from earlier work.
Data set [4] can be described thus: pKBH+ estimation of cyclopropenimine 1 by 1H NMR equilibrium with reference bases in CD3CN. The class given is physicochemical. The procedure:
The inventors have measured the acidity of the conjugate acid (pKBH+) of cyclopropenimine (compound 1),
These findings confirm for the first time that 2,3-bis(dialkylamino)cyclopropenimines are indeed potent Brønsted bases.
as §1
Cyclopropenimine hydrochloride (18.2 mg, 0.053 mmol, 1.0 equiv) and 1,8-diazabicycloundec-7-ene (7.9 μl, 0.053 mmol, 1.0 equiv) were dissolved in CD3CN. The ^1H NMR chemical shift of the cyclopropenimine isopropyl groups was used to estimate the equilibrium ratio and equilibrium constant of the reaction. The equilibrium constant was then used, with the known pKBH+ of DBU (Kaljurand et al., 2005), to determine the estimated pKBH+. The experiment was repeated in triplicate. A representative ^1H NMR spectrum of the experiment is included.
Cyclopropenimine hydrochloride (13.8 mg, 0.04 mmol, 1.0 equiv) and tert-Butylimino-tri(pyrrolidino)phosphorane (12.5 mg, 0.04 mmol, 1.0 equiv) were dissolved in CD3CN. The ^1H NMR chemical shift of the cyclopropenimine isopropyl groups was used to estimate the equilibrium ratio and equilibrium constant of the reaction. The equilibrium constant was then used, with the known pKBH+ of BTPP (Kaljurand et al., 2005), to determine the estimated pKBH+. The experiment was repeated in triplicate.

Values joined by “and” are separate entries in the source; they are usually repeats but may differ in a detail not shown here. Equal values may be shown once. Where a name gives a salt, the structure may show the parent alone.

As for `CC(C)N(c1c(N(C(C)C)C(C)C)c1=NC(C)(C)C)C(C)C` [1.HCl, 3-(tert-butylimino)-N1,N1,N2,N2-tetraisopropylcycloprop-1-ene-1,2-diamine hydrochloride salt], the “storage stability of the hydrochloride salt” value (“storage stability” for short) in data set [1] is recorded as “without noticeable decomposition”.

With `Cl.OC[C@H](Cc1ccccc1)N=c1c(N(C2CCCCC2)C2CCCCC2)c1N(C1CCCCC1)C1CCCCC1` [5.HCl, (S)-2-(2,3-bis(dicyclohexylamino)cycloallylamino)-3-phenylpropan-1-ol hydrochloride salt], the “Cyclopropenimine purity (%)” value in data set [2] (HCl salt stored at room temperature, 0 days) came to 100%; in data set [2] (HCl salt stored at room temperature, 2 days), 100%; in data set [2] (HCl salt stored at room temperature, 9 days) it was 100%; in data set [2] (HCl salt stored at room temperature, 16 days) it was 100%; in data set [2] (HCl salt stored at room temperature, 23 days) it was 100%; in data set [2] (HCl salt stored at room temperature, 30 days), 100%. Moreover, the “stability of the HCl salt” value in data set [2] (at room temperature) is listed as “indefinitely stable”. Further, the “storage stability” value in data set [1] is given as “without noticeable decomposition”.

As to `C[C@H](N=c1c(N(C2CCCCC2)C2CCCCC2)c1N(C1CCCCC1)C1CCCCC1)c1ccccc1.Cl` [7.HCl, (S)—N1,N1,N2,N2-tetracyclohexyl-3-(1-phenylethylimino)cycloprop-1-ene-1,2-diamine hydrochloride salt], in data set [1], the “storage stability” value was “without noticeable decomposition”.

For the compound `CC(C)N(c1c(N(C(C)C)C(C)C)c1=N[C@H](CO)Cc1ccccc1)C(C)C.Cl` [8.HCl, (S)-2-(2,3-bis(diisopropylamino)cycloallylamino)-3-phenylpropan-1-ol hydrochloride salt], the “storage stability” value in data set [1] is reported as “without noticeable decomposition”.

With `CN(C)C(=NC(C)(C)C)N(C)C` [BTMG], the “pKBH+” value in data set [3] was 23.56.

As to `CN(C)P(=NC(C)(C)C)(N(C)C)N(C)C` [P1-^tBu], the “pKBH+” value in data set [3] was 26.98.

In the case of `C1CN=C2NCCCN2C1` [TBD], the “pKBH+” value in data set [3] was 26.03.

Consider `CC(C)N(c1c(N(C(C)C)C(C)C)c1=NC(C)(C)C)C(C)C` [cyclopropenimine 1, 3-(tert-butylimino)-N1,N1,N2,N2-tetraisopropylcycloprop-1-ene-1,2-diamine], for which the “Estimated pKBH+ (CD3CN), BTPP, Average” value in data set [4] (average of three trials, BTPP as reference base, CD3CN) is recorded as 26.96. Moreover, the “Estimated pKBH+ (CD3CN), DBU, Average” value in data set [4] (average of three trials, DBU as reference base, CD3CN) was 26.74. For the same compound, in data set [4] (in acetonitrile), the “acidity of the conjugate acid (pKBH+)” value is 26.9 and the “basicity relative to comparable guanidine BTMG” value is reported as “three orders of magnitude more basic”. The “Estimated pKBH+ (CD3CN), BTPP” value in data set [4] (single trial, BTPP as reference base, CD3CN) was 27.00 and 26.85 and 27.03. Moreover, in data set [4] (single trial, DBU as reference base, CD3CN), the “Estimated pKBH+ (CD3CN), DBU” value was 26.75 and 26.74.

As to `OC[C@H](Cc1ccccc1)N=c1c(N(C2CCCCC2)C2CCCCC2)c1N(C1CCCCC1)C1CCCCC1` [cyclopropenimine 5, (S)-2-(2,3-bis(dicyclohexylamino)cycloallylamino)-3-phenylpropan-1-ol], the half-life in data set [2] (neat solid in a vial, pure sample stored at room temperature, followed over 30 days, read-out: t1/2 of conversion to rearranged compound 13 (converted)) was around 12 days. In addition, the “Cyclopropenimine purity (%)” value was found to be 100% in data set [2] (solid stored at rt, 0 days); 78% in data set [2] (solid stored at rt, 2 days); 57% in data set [2] (solid stored at rt, 9 days); 39% in data set [2] (solid stored at rt, 16 days); 25% in data set [2] (solid stored at rt, 23 days); 5% in data set [2] (solid stored at rt, 30 days). The “Cyclopropenimine purity (%)” value in data set [2] (solid stored at −20° C., 0 days) turned out to be 100%; in data set [2] (solid stored at −20° C., 2 days), 100%; in data set [2] (solid stored at −20° C., 9 days), 98%; in data set [2] (solid stored at −20° C., 16 days) it was 96%; in data set [2] (solid stored at −20° C., 23 days) it was 96%; in data set [2] (solid stored at −20° C., 30 days), 94%. The compound further had a sample still intact in data set [2] (stored at −20° C., after 30 days) of 94%.
